Measured values from article PMC6368365, “Didehydro-Cortistatin A Inhibits HIV-1 by Specifically Binding to the Unstructured Basic Region of Tat” (mBio, 2019).

Assays:
intracellular Tat = molecular target: T1, intracellular Tat (Human immunodeficiency virus type 1 group M subtype B, UniProt P69697); assay: Steady state of recombinant Tat in HeLa-CD4-LTR-Luc cells (Western blot); type: cell-based, HIV-1; conditions: 6 hours with compound, MG132 10 μM
T1 construct: pTatC6H-1 (NIH AIDS Reagent Program) plasmid encoding C-terminal 6xHistidine Tat1-86 (HXB3, subtype B); made in house; host or cells: E. coli BL21 (plasmid pTatC6H-1, NIH AIDS Reagent Program)
Protocol: FIG 5 dCA stabilizes Tat structure. (A) Trp fluorescence assays. (Left) Schematic of the assay. (Center) DMSO, dCA (7.5× Tat concentration) or raltegravir (Ralt.; 7.5× Tat concentration) was incubated with Tat. The fluorescence of the Trp^11 of Tat protein was measured at the indicated wavelengths. Acrylamide (250 mM) was used as a quenching control of Tat fluorescence. (Right) Peak absorbance (λmax) versus increasing fold ratios of compounds to Tat protein. Data are representative of n = 3 independent experiments. (B) DARTS assays. Tat was incubated with DMSO or dCA, at increasing concentrations, in the presence of increasing concentrations of proteinase K (PK). […] Data are representative of n = 2 independent experiments. (C) Steady state of Tat in the presence of dCA in vivo. HeLa-CD4-LTR-Luc cells were incubated with recombinant Tat and then washed and incubated with the indicated compounds for 6 hours. […] (Left) Western blot representative of n = 4 independent experiments. MG132 was used as a positive control of Tat protection from degradation, and raltegravir was used as a negative control. (Right) Densitometry of the Tat band normalized to the actin band. Results represent the mean ± SEM from n = 4 independent experiments. Statistical significance was determined using one-way ANOVA with post hoc Tukey’s test. ns, not significant; ***, P < 0.0001; **, P < 0.001.
Next, we determined the half-life of recombinant Tat in HeLa-CD4-LTR-Luc cells in the presence of dCA (Fig. 5C). We incubated recombinant Tat with cells for 4 hours, and after several washes to remove extracellular Tat protein, we incubated cells with DMSO, dCA, or raltegravir for an additional 6 hours. Western blotting with anti-His antibody was performed to reveal intracellular Tat. […]
Half-life of Tat in vivo. […] Total protein concentration was assessed by Bradford assay and Tat protein in each condition determined by western blot with an anti-His antibody at 1:1500 dilution (Thermofisher). […]

Tat-TAR interaction = Tat-TAR interaction (Human immunodeficiency virus type 1 group M subtype B, UniProt P69697); assay: EMSA of full-length Tat with TAR; type: biochemical, HIV-1; design: pTatC6H-1 (NIH AIDS Reagent Program) plasmid encoding C-terminal 6xHistidine Tat1-86 (HXB3, subtype B); made in house; host or cells: E. coli BL21 (plasmid pTatC6H-1, NIH AIDS Reagent Program); conditions: radiolabeled TAR
Text: Tat amplifies viral mRNA expression by binding through its basic domain to TAR, the 5′-terminal region stem-bulge-loop structure of HIV mRNAs, and recruits several cofactors to the viral promoter to promote transcriptional elongation. We investigated whether dCA could compete with TAR for Tat binding. For this purpose, we performed EMSA with radiolabeled TAR and recombinant Tat in the presence or absence of dCA (Fig. 6A).
EMSA with full-length Tat, a protocol similar to that of Das et al. was performed ([60]). Details on the EMSA with Tat’s basic peptide are provided in Text S1.
EMSA With full-length Tat: similar protocol was performed as in Das et al. (60). With Tat’s basic peptide: the 59-nucleotides TAR RNA was prepared by in vitro T7 RNA polymerase transcription according to Maxiscript kit manufacturer’s instructions (Ambion). The radiolabeled RNA was purified by urea gel followed by phenol-chloroform extraction. Binding reaction mixture (25 µL of 10 mM Tris HCL pH 7.5, NaCl 70 mM, EDTA 0.2 mM, NP40 0.01 %, Glycerol 5 % and tRNA 100 ng/µL) contained traces of radiolabeled TAR RNA and basic peptide (Pep B, residues 45-59) (or peptide C “Pep C”, residues 69-83, as negative control) in combination or not with compounds or cold TAR. The mixture was incubated for 10 min at room temperature (RT). […]

Tat-TAR interaction, sequence (P69697 whole entry, the tested form may be a part): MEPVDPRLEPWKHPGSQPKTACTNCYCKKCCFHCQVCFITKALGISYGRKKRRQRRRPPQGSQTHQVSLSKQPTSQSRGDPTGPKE
T1 sequence (P69697 whole entry): as the sequence (P69697 whole entry, the tested form may be a part) above

| Compound | percentage of remaining Tat (intracellular Tat) [%] | inhibition of Tat-TAR interaction (EMSA) (Tat-TAR interaction) |
| --- | --- | --- |
| CN(C)C1CC23CCC4(O2)C(=CCC2(C)C(c5ccc6ccncc6c5)=CCC24)C=C3C(O)C1O (stereo not shown) [dCA, didehydro-cortistatin A] | 40 | inhibited the interaction of Tat with TAR in a dose-responsive manner |
| Cc1nnc(C(=O)NC(C)(C)c2nc(C(=O)NCc3ccc(F)cc3)c(O)c(=O)n2C)o1 [raltegravir, reference compound] | 28 | no inhibitory activity |
